# Where two headings read alike, the source gives them in different places.
# Tests used:
# [1] = Relative iron(III) binding efficiency by competition with EDTA; assay type: physicochemical; conditions: for Relative binding: Table 1, DFO = 100, competition with EDTA in aqueous MeOH; for rel. Fe binding (b): Table 2, relative to DFO = 1.16, 0.75 mM hydroxamate, 0.15 mM EDTA, 0.15 mM Fe3+ in aqueous methanol; for Pcoeff*Fe binding (a*b): product of relative partition coefficient and relative iron(III) binding
# Procedure: c. The relative binding efficiencies of the reversed siderophores (0.75 mM reversed siderophore and 0.15 mM Fe^3+ in aqueous MeOH (MeOH-0.1N NaOAc) were incubated with EDTA (0.15 mM). After equilibration overnight, the fraction of siderophore- Fe^3+ complex present was determined at 430 nm.
# (§1) The values for Pcoeff of free RSF ileun2 (the same as SF1ileu) and of leun2 and their respective iron(III) complexes were similar (not shown).
# [2] = amino acid side chain, Tanford/Segret's scale as given by Eisenberg 1984; cited from earlier work
# [3] = tested on: trophozoites of P. falciparum; test: Antimalarial activity (Table 2), [3H]-hypoxanthine incorporation; assay type: cell-based, Plasmodium falciparum; conditions: Plasmodium falciparum
# Procedure: g. Bioassay of iron carrier antimalarial activity. The antimalarial activity was assayed by adding the compounds from concentrated stock solutions (in DMSO) to microcultures (24 wells, Costar) containing infected red cells (2.5% hematocrit and 2% parasitemia). The cultures were usually synchronized (4-7 hrs. windows) by incubation in 300 mM Ala, 10 mM TRIS-Cl in conjunction with gelatin flotation and used either at the trophozoite (1-2% parasitemia) or at the ring stage (4-6% parasitemia) of the erythrocyctic cycle. After the indicated time of incubation with drug and either previous to or after washing 3 times with 100 volumes growth medium, the cells were supplemented with 6 μCi of either [^3 H]-hypoxanthine or [^3 H]-Ileu (Amersham, England) per well and parasite growth assessed after 24-48 hours by harvesting the labelled cells onto glass-fiber filters (Tamar, Inc. Jerusalem) and counting of the radioactivity. […]
# [4] = tested on: trophozoites of P. falciparum, strain ItG2G1; test: Antimalarial activity (Table 1), [3H]hypoxanthine incorporation; assay type: cell-based; conditions: Plasmodium falciparum, 48 h
# Procedure: f. Parasite cultures. The P. falciparum strains used in the experiments: ItG2G1 (Brazil, provided by Dr. L. H. Miller), D6 (W. African, provided by Dr. A. J. M. Oduola) FCR-3 (Gambian, provided by Dr. J. B. Jensen) and W2 (Indochina, provided by Dr. A. J. M. Oduola), were grown in culture flasks of human erythrocytes by a modified version of Trager and Jensen's method as described by Silfen et al. ((1988) Biochem. Pharmacol. 37: 4269-4276)).
# g. Bioassay of iron carrier antimalarial activity. The antimalarial activity was assayed by adding the compounds from concentrated stock solutions (in DMSO) to microcultures (24 wells, Costar) containing infected red cells (2.5% hematocrit and 2% parasitemia). The cultures were usually synchronized (4-7 hrs. windows) by incubation in 300 mM Ala, 10 mM TRIS-Cl in conjunction with gelatin flotation and used either at the trophozoite (1-2% parasitemia) or at the ring stage (4-6% parasitemia) of the erythrocyctic cycle. After the indicated time of incubation with drug and either previous to or after washing 3 times with 100 volumes growth medium, the cells were supplemented with 6 μCi of either [^3 H]-hypoxanthine or [^3 H]-Ileu (Amersham, England) per well and parasite growth assessed after 24-48 hours by harvesting the labelled cells onto glass-fiber filters (Tamar, Inc. Jerusalem) and counting of the radioactivity.
# The antimalarial activity of the different chelators was initially evaluated on cultures of trophozoites which were exposed for 24 hours to different concentrations of chelators. Following that period, [^3 H]-hypoxanthine or [^3 H]-Ileu were added and 24 hours later the parasitemia and incorporation of label into macromolecular material was determined.
# [5] = Extraction of iron from aqueous FeCl3/citrate into chloroform; assay type: physicochemical; conditions: 0.3 mM in chloroform vs 0.3 mM FeCl3, 0.3 mM citric acid, 40 mM TRIS, pH 6.9, overnight
# Procedure: d. Extractions were performed by overnight equilibration of 0.3 mM chloroform solutions of reversed siderophore with aqueous solutions of 0.3 mM FeCl3, 0.3 mM citric acid, 40 mM TRIS, pH 6.9. The amount of iron taken up into the organic phase was determined by the absorption of the iron+complex at 430 nm. No iron uptake into chloroform solutions devoid of RSF was observed by ion chromatography.
# [6] = Partition between n-octanol and saline; assay type: physicochemical; conditions: for logP: Table 1, free ligand, read-out: Partition coefficient (converted); for rel. Pcoeff (a): Table 2, relative to L-val-n1 = 1.0
# Procedure: e. Partition coefficients were obtained by overnight equilibration of the free reversed siderophores between equal volumes of n-octanol and saline. The concentrations of the ligands in each phase were determined by adding excess iron(III) and measuring the ferric complexes at 430 nm.
# as §1
# [7] = tested on: normal red cells; test: Uptake of 59Fe-carrier complexes into normal red cells; assay type: cell-based, human
# Procedure: (§2) k. Uptake of radioactive carrier-Fe complexes. DFO and the different SF derivatives were pre-complexed with iron by addition of concentrated stock solutions of 20 mg/ml carriers to ^59 FeCl3 (Amersham, England) in 0.5 ml of 150 mM NaCl, 10 mM Hepes at 3-5 molar excess of carrier for 1 hour at room temperature. To begin the flux, normal or parasitized red cells that had been washed 3 times in saline buffer and resuspended in the same buffer supplemented with 5% bovine serum albumin (BSA), 2.5 mM citrate, 2 mg/ml glucose were added to radioactive ^59 Fe-complexes at a final suspension of 20% hematocrit. After incubation at 37° C., 75 μl suspension was removed in duplicate aliquots for each time point, placed in plastic 15 ml test tube (Starstedt) and centrifuged 1 minute at 2,500 g. The supernatant was removed and the pellet immediately placed on ice. After all sampling was completed the pellets were washed twice in 15 ml of ice cold buffer containing 50 mM EDTA and lysed in distilled water. Radioactivity (Gamma emission, 700-1300 Kev) was counted and the cell number for each sample determined from hemoglobin absorption of the lysate at 410 nm.
# Due to the fact that RSF's have markedly greater lipophilicity than DFO, they were expected to faster penetrate and therefore more effectively chelate intracellular iron after short exposure times. Penetration of RSF's into normal and infected red cells was estimated by monitoring uptake of the RSF's-^59 Fe(III) complexes into infected and uninfected cells and compared to DFO. In order to confirm actual uptake of Fe-RSF ileun2 rather than adsorption to the outer membrane, cells were thoroughly washed and lysates were subjected to 80,000g×20 min centrifugation. More than 90% of the total counts were found in the cytosol fraction (results not shown).
# FIGS. 8a and 8b show uptake of Fe^59 -carrier complexes into normal and infected red cells. Uptake of ^59 -Fe-RSF (FIG. 8a) and ^59 Fe-DFO (FIG. 8b) into normal (open symbols) and infected (closed symbols) red cells (60% parasitemia, >90% trophozoites). The carriers were pre-complexed to ^59 FeCl3 at 4:1 ration in DMSO with 5 μM external FeCl3 (from methanolic stock solutions). The radioactive complexes were then added to 20% hematocrit cell suspensions and flux was measured. Specific activity was 485000 cpm/nmole and 369000 cpm/nmole for the RSF and DFO uptake experiments, respectively. Cell number was determined from hemoglobin absorption of lysate at 410 nm.
# [8] = tested on: infected red cells; test: Uptake of 59Fe-carrier complexes into infected red cells; assay type: cell-based, human erythrocytes infected with P. falciparum
# Procedure: as §2
# Penetration of RSF's into normal and infected red cells was estimated by monitoring uptake of the RSF's-^59 Fe(III) complexes into infected and uninfected cells and compared to DFO. In order to confirm actual uptake of Fe-RSF ileun2 rather than adsorption to the outer membrane, cells were thoroughly washed and lysates were subjected to 80,000g×20 min centrifugation.
# The carriers were pre-complexed to ^59 FeCl3 at 4:1 ration in DMSO with 5 μM external FeCl3 (from methanolic stock solutions). The radioactive complexes were then added to 20% hematocrit cell suspensions and flux was measured. […] Cell number was determined from hemoglobin absorption of lysate at 410 nm.
# [9] = trophozoites, 40 hours exposure, mean of 3-4 experiments, read-out: IC50 (c)
"IC50 [3, 9] [µM]",Uptake kinetics compared with RSF-ileun2 [7],Uptake kinetics compared with RSF-ileun2 [8],rel. Fe binding (b) ([1]; listed as L-val n1),Fe-binding affinity relative to DFO ([1]; percent that of DFO) [%],Pcoeff*Fe binding (a*b) ([1]; listed as L-val of n1 subfamily),"IC50 ([3]; discussion of Table 2, unit inferred, read-out: IC50) [µM]",SMILES,Relative binding [1],rel. Fe binding (b) [1],Pcoeff*Fe binding (a*b) [1],Hydrophobicity [2],"IC50 ([3]; 40 h, read-out: IC50 (c)) [µM]",IC50 [4] [µg/mL],Extraction efficiency [5],logP [6],rel. Pcoeff (a) [6],Pcoeff of free ligand vs iron(III) complex ([6]; not shown)
,,,,,,,CCC(COCCC(=O)N1CCC[C@H]1C(=O)N(C)O)(COCCC(=O)N1CCC[C@H]1C(=O)N(C)O)COCCC(=O)N1CCC[C@H]1C(=O)N(C)O [SFI--pro],14,0.16,0.06,1.5,> 100,> 100,38,-0.187,0.4,
3 ± 1,,,,,,,CC[C@H](C)[C@H](NC(=O)COCC(CC)(COCC(=O)N[C@H](C(=O)N(C)O)[C@@H](C)CC)COCC(=O)N[C@H](C(=O)N(C)O)[C@@H](C)CC)C(=O)N(C)O [(L--ileu) n=1],,1.0,9.3,,,,,,9.0,
,,,,,,,CCC(COCCC(=O)N[C@H](C)C(=O)N(C)O)(COCCC(=O)N[C@H](C)C(=O)N(C)O)COCCC(=O)N[C@H](C)C(=O)N(C)O [SF1--D--ala],108,1.25,0.37,1.0,70 ± 13,45,88,-0.276,0.3,
5 ± 2,Identical uptake kinetics,Identical uptake kinetics,,,,,CCC(COCC(=O)N[C@@H](CC(C)C)C(=O)N(C)O)(COCC(=O)N[C@@H](CC(C)C)C(=O)N(C)O)COCC(=O)N[C@@H](CC(C)C)C(=O)N(C)O [(L--leu) n=1],,0.23,3.86,,,,,,17.0,
,,,,,,,CC[C@@H](C)[C@@H](NC(=O)CCOCC(CC)(COCCC(=O)N[C@@H](C(=O)N(C)O)[C@H](C)CC)COCCC(=O)N[C@@H](C(=O)N(C)O)[C@H](C)CC)C(=O)N(C)O [(D--ileu) n=2],,0.298,2.4,,9 ± 3,,,,8.2,
,,,,,,,CCC(COCCC(=O)N[C@@H](CC(C)C)C(=O)N(C)O)(COCCC(=O)N[C@@H](CC(C)C)C(=O)N(C)O)COCCC(=O)N[C@@H](CC(C)C)C(=O)N(C)O [SF1--L--leu],10,0.12,0.9,3.5,22 ± 4,17,35,1.1,7.4,similar
6 ± 2,,,,,,,CCC(COCCC(=O)N[C@H](C(=O)N(C)O)C(C)C)(COCCC(=O)N[C@H](C(=O)N(C)O)C(C)C)COCCC(=O)N[C@H](C(=O)N(C)O)C(C)C [(L--val) n=2],,1.31,2.8,,,,,,2.1,
,,,,,,,CCC(COCCC(=O)N[C@@H](C)C(=O)N(C)O)(COCCC(=O)N[C@@H](C)C(=O)N(C)O)COCCC(=O)N[C@@H](C)C(=O)N(C)O [SF1--L--ala],108,1.25,0.37,1.0,62 ± 10,40,88,-0.276,0.3,
4 ± 1,,,1,86,1,4,CCC(COCC(=O)N[C@H](C(=O)N(C)O)C(C)C)(COCC(=O)N[C@H](C(=O)N(C)O)C(C)C)COCC(=O)N[C@H](C(=O)N(C)O)C(C)C [(L--val) n=1],,1.0,1.0,,,,,,1.0,

# Source: patent US5430058A, “Pharmaceutical compositions comprising hydroxamate derivatives for iron removal” (Yeda Research and Development Co. Ltd., priority 1993, dated 1995)
